According to patent US11413278B2, “Compounds and methods for promoting stress resistance” (priority 2015, dated 2022):
Read-outs that look alike come from different tables or passages of the source.

Assays:
[1] = test system: mTOR; assay: mTOR inhibition (RPS6 phosphorylation status), In-Cell Western; assay type: cell-based, human
Procedure, shortened: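 WI-38 cells exposed to compounds at 5, 10 and 20 μM for 24 hrs. Fixed cells co-stained overnight at 4° C with anti-RPS and anti-pRPS6 (Ser-235/236) antibodies, then DyLight 680/800 secondaries. Phospho-RPS6 relative to total RPS6 read by near-infrared In-Cell Western imaging.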

[2] = test system: PC12 cells expressing poly(Q)103-Htt-EGFP; assay: Poly(Q) toxicity & viability analysis (cellular model of Huntington's disease); assay type: cell-based, rat; settings: for M = Huntington's poly-Q toxicity attenuation: score; for K = Huntington's poly-Q toxicity attenuation: summary score
Procedure, shortened: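 PC12 cells stably carrying inducible poly(Q)103-Htt-EGFP, whose induced expression causes aggregation and toxicity. Viability read 48 hrs later as ATP content by CellTiter-Glo.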

[3] = test system: WI-38 cells; settings: for No H2O2 stress treatment, at 10 uM (fold change): normalized ATP measurement
[4] = test system: NRF2; assay: in vitro; assay type: cell-based, human
[5] = test system: NRF2; assay: qPCR analysis of NRF2-regulated genes; assay type: cell-based, human; settings: for Potential NRF2 Activation (>=2 target genes induced, by >=1.5-fold): Assay 13(p); for fold induction at 10 µM: Homo sapiens
Procedure, shortened: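 WI-38 cells treated with compound at 10 μM for 24 hrs, then processed by Cells-to-Ct for RNA isolation, RT and qPCR of NRF2-regulated genes (HMOX1, NQO1, GCLC, GSTM1). Expression normalized to B2M, PPIA and GAPDH; siRNA knockdown of FOXO3 or NRF2 (10 nM) preceded treatment in some runs.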

[6] = WI-38 cells, 10 μM, (*) = compromised ability to protect cells from H2O2, could be due to stability issue
[7] = asterisks indicate the loss of the ability to protect cells from H2O2 over time
[8] = derived from dose response curves, 0.6-20 uM, H2O2-resistance of WI-38 cells
[9] = read-out: Est. ED50, dose response 0.6-20 μM, H2O2-resistance
[10] = 24 h, Assay 12(o), at 10 uM, qPCR, read-out: Induction of NRF2-regulated genes: GSTM1 normalized fold-change
[11] = 24 h, Assay 12(o), at 10 uM, qPCR, read-out: Induction of NRF2-regulated genes: HMOX1 normalized fold-change
[12] = 24 h, Assay 12(o), at 10 uM, qPCR, read-out: Induction of NRF2-regulated genes: NQO1 normalized fold-change
[13] = rounded fold change, WI-38 cells, 10 μM, 24 hrs (RP11 for Gr-1D, RP29 for Gr-4D), read-out: Summary of effects on NRF2-regulated genes: HMOX1
[14] = rounded fold change, WI-38 cells, 10 μM, 24 hrs (RP29 for Gr-4D), read-out: Summary of effects on NRF2-regulated genes: GSTM1
[15] = rounded fold change, WI-38 cells, 10 μM, 24 hrs (RP29 for Gr-4D), read-out: Summary of effects on NRF2-regulated genes: NQO1
[16] = 10 μM, 24 hrs, WI-38, read-out: Expression of at least two NRF2 target genes
[17] = 10 μM, 24 hrs, WI-38 cells, qPCR, normalized to B2M, n = 4, read-out: GSTM1 expression, normalized fold change (NRF2-regulated gene)
[18] = 10 μM, 24 hrs, WI-38 cells, qPCR, normalized to B2M, n = 4, read-out: HMOX1 expression, normalized fold change (NRF2-regulated gene)
[19] = 10 μM, 24 hrs, WI-38 cells, qPCR, normalized to B2M, n = 4, read-out: NQO1 expression, normalized fold change (NRF2-regulated gene)
[20] = WI-38 cells, 10 μM, 24 hrs, n=4, qPCR normalized by B2M, read-out: GCLC Normalized fold change
[21] = WI-38 cells, 10 μM, 24 hrs, n=4, qPCR normalized by B2M, read-out: GSTM1 Normalized fold change
[22] = WI-38 cells, 10 μM, 24 hrs, n=4, qPCR normalized by B2M, read-out: HMOX1 Normalized fold change
[23] = WI-38 cells, 10 μM, 24 hrs, n=4, qPCR normalized by B2M, read-out: NQO1 Normalized fold change

| Compound | G = mTOR down-regulation ([1]; 2-point score) | G = mTOR down-regulation ([1]; summary score) | M = Huntington's poly-Q toxicity attenuation [2] | K = Huntington's poly-Q toxicity attenuation [2] | H2O2-resistant [3, 6] | No H2O2 stress treatment, at 10 uM (fold change) ([3]; WI-38 cells) | H2O2-resistant [3, 7] | EC50 [3, 9] | J = NRF2-dependency for H2O2-resistance ([4]; score) | J = NRF2-dependency for H2O2-resistance ([4]; summary score) | F = Potential NRF2 Activation ([5]; 2-point score) | Potential NRF2 Activation (>=2 target genes induced, by >=1.5-fold) [5] | fold induction at 10 µM [5, 11] | fold induction at 10 µM [5, 12] | fold induction at 10 µM [5, 13] | fold induction at 10 µM [5, 15] | fold induction at 10 µM [5, 16] | fold induction at 10 µM [5, 18] | fold induction at 10 µM [5, 19] | fold induction at 10 µM [5, 20] | other results |
| --- | --- | --- | --- | --- | --- | --- | --- | --- | --- | --- | --- | --- | --- | --- | --- | --- | --- | --- | --- | --- | --- |
| O=C(/C(=C/c1ccc(Cl)cc1)c1nc2ccccc2[nH]1)c1ccccc1 [Gr-4D] | 0 | 0 | 0 | 0 | YES | 1.11 fold change | YES | 8.9 µM | 0 | 0 | 2 | YES | 4.55 | 2.56 | 4.55 | 2.56 | > 1.5 | 4.55 | 2.56 | 0.863 | Assay 1: H2O2-resistant ([3]; YES/NO, if NO, possibly due to repeated freezing/thawing of stocks): YES; EC50 [3, 8]: 10.6 µM; NRF2-dependency for H2O2-resistance, at 10 uM (experiment 3) - with & without H2O2 ([4]; 10 uM, experiment 3, with & without H2O2): Partial; NRF2-dependency for H2O2-resistance (experiment 3) ([4]; 10 uM, with & without H2O2, NRF2 knockdown in WI-38 cells, YES = resistance reduced by at least 50%, partial = 25% to 50%): Partial; NRF2-dependency of H2O2-resistance (NRF2 siRNA knockdown) ([4]; at least 2 of 3 independent experiments): partially dependent on NRF2; Induction of at least two NRF2-regulated genes (HMOX1, NQO1, GCLC, GSTM1) ([5]; 10 μM, 24 hrs, WI-38): could induce both FOXO3- and NRF2-regulated genes; fold induction at 10 µM [5, 10]: 1.52; fold induction at 10 µM [5, 14]: 1.52; fold induction at 10 µM [5, 17]: 1.52; fold induction at 10 µM [5, 21]: 1.52; fold induction at 10 µM [5, 22]: 4.55; fold induction at 10 µM [5, 23]: 2.56; Summary of effects on NRF2-regulated genes: HMOX1, second run ([5]; run RP42 (Gr-1D) / RP52 (Gr-4D), WI-38 cells, 10 μM): 2.40,; Summary of effects on NRF2-regulated genes: NQO1, second run ([5]; run RP52 (Gr-4D), WI-38 cells, 10 μM): 1.49,; F = Potential NRF2 Activation ([5]; summary score): 2 |
| CCc1ccc(Oc2nc3ccccn3c(=O)c2/C=C(\C#N)C(=O)NC2CCCCC2)cc1 [Gr-5A] | 0 | 0 | 0 | 0 | YES | 1.14 fold change | YES | 10.2 µM | 0 | 0 | 2 | YES | 2.06 | 1.55 | 2.06 | 1.55 | > 1.5 | 2.06 | 1.55 | 0.919 | fold induction at 10 µM [5, 21]: 1.15; fold induction at 10 µM [5, 22]: 2.06; fold induction at 10 µM [5, 23]: 1.55; F = Potential NRF2 Activation ([5]; summary score): 2 |
| CCc1ccc(Oc2nc3ccccn3c(=O)c2/C=C(\C#N)C(=O)NCc2ccco2)cc1 [Gr-5B] | 0 | 0 | 0 | 0 | YES | 1.19 fold change | YES | 14.3 µM | 0 | 0 | 2 | YES | 1.73 | 1.94 | 1.73 | 1.94 | > 1.5 | 1.73 | 1.94 | 1.15 | EC50 [3, 8]: 8.7 µM; fold induction at 10 µM [5, 10]: 1.27; fold induction at 10 µM [5, 14]: 1.27; fold induction at 10 µM [5, 17]: 1.27; fold induction at 10 µM [5, 21]: 1.27; fold induction at 10 µM [5, 22]: 1.73; fold induction at 10 µM [5, 23]: 1.94; F = Potential NRF2 Activation ([5]; summary score): 2 |
